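96-well plates; 48 h exposure; 5 concentrations. Endpoints by linear interpolation between flanking doses. Not reached: highest tested concentration assigned. GI50 = concentration required for 50% inhibition of growth.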 Activity calls are given as the source filed them. Cut-off read from the data, not from the text of the source: active = GI50 up to about 1.1 µM and inactive = higher. Bounds are passed on as bounds.

Some test systems named below: A498; A549; DLD-1; HCC 2998; HOP-62; K562; LOX IMVI; MOLT-4; NCI-H226; NCI-H23; OVCAR-3; OVCAR-8; SF-268; SK-MEL-28; SN12C; HCT-15.
Holding throughout (assay): NCI-60 cell line screen, 48 h

Turning to `CC(Oc1ccc2c(-c3ccccc3)cc(=O)oc2c1)C(=O)O` (stereo not drawn), the GI50 with A498, in the assay on A549, in the assay on DLD-1, in the assay on HCC 2998, with HOP-62 and with K562 was > 100 µM (inactive) each time. Moreover, the GI50 in the assay with LOX IMVI, with MOLT-4, with NCI-H226, in the assay with NCI-H23, in the assay on OVCAR-3 and in the assay on OVCAR-8 was > 100 µM (inactive) each time. In addition, the GI50 in the assay with SF-268, with SK-MEL-28 and in the assay on SN12C was > 100 µM (inactive) each time.

`Cc1nc(N)sc1C(=O)/C=C\c1ccc2c(c1)OCO2`: the GI50 was > 100 µM (inactive) in the assay on A498; > 100 µM (inactive) in the assay with A549; > 100 µM (inactive) in the assay with DLD-1; > 100 µM (inactive) with HCC 2998; above 100 µM in the assay on HCT-15; > 100 µM (inactive) with HOP-62. Moreover, the GI50 in the assay on K562, in the assay on LOX IMVI, in the assay with MOLT-4, in the assay on NCI-H226, in the assay with NCI-H23 and in the assay with OVCAR-3 was > 100 µM (inactive) in each case. In addition, the GI50 in the assay with OVCAR-8, with SF-268, with SK-MEL-28 and in the assay with SN12C was > 100 µM (inactive) each time.

As to `C=CC1(NS(=O)(=O)c2ccc(C)cc2)CCC(C(C)(C)C)CC1` (stereo not drawn), the GI50 was > 100 µM (inactive) in the assay on A498; 80.9 µM (inactive) in the assay with A549; > 100 µM (inactive) in the assay with DLD-1; > 100 µM (inactive) in the assay on HCC 2998; above 100 µM with HCT-15; 57.7 µM (inactive) in the assay on HOP-62. For the same compound, the GI50 was > 100 µM (inactive) with K562; > 100 µM (inactive) with MOLT-4; > 100 µM (inactive) in the assay on NCI-H226; 21.6 µM (inactive) in the assay on OVCAR-3; 52.8 µM (inactive) in the assay with OVCAR-8; 27 µM (inactive) with SF-268. Besides, the GI50 in the assay with SK-MEL-28 and in the assay with SN12C was > 100 µM (inactive) each time.

As for `COc1cccc2c1C(=O)c1c(O)c3c(c(O)c1C2=O)C[C@@](O)(C(C)=O)C[C@@H]3OC1CC([N+]([O-])(Cc2ccccc2)Cc2ccccc2)C(O)C(C)O1` (stereo partly drawn), the GI50 was 2.46 µM (inactive) with A498; 1.29 µM (inactive) in the assay with A549; 1.29 µM (inactive) in the assay on DLD-1; 1.62 µM (inactive) in the assay on HCC 2998; 1.32 µM with HCT-15; 1.56 µM (inactive) in the assay with HOP-62. For the same compound, the GI50 was 1.7 µM (inactive) with K562; 1.02 µM (active) in the assay on LOX IMVI; 0.191 µM (active) with MOLT-4; 1.3 µM (inactive) with NCI-H23; 1.73 µM (inactive) in the assay with OVCAR-3; 0.774 µM (active) in the assay with OVCAR-8. The GI50 in the assay on SN12C was 1.06 µM (active).

Take `NC(CCCNc1cccc(O)c1)C(=O)O` (stereo not drawn): the GI50 was > 100 µM (inactive) in the assay on A498; > 100 µM (inactive) in the assay with A549; > 100 µM (inactive) with DLD-1; above 100 µM in the assay on HCT-15; > 100 µM (inactive) in the assay on HOP-62; > 100 µM (inactive) in the assay on K562. Further, the GI50 in the assay on LOX IMVI, in the assay with MOLT-4, in the assay on NCI-H226, with OVCAR-3, with OVCAR-8 and in the assay with SF-268 was > 100 µM (inactive) throughout. Moreover, the GI50 in the assay on SK-MEL-28 and with SN12C was > 100 µM (inactive) throughout.

Take `CC1CCN(CCC(=O)CC(c2ccccc2)c2c(O)c3ccccc3oc2=O)CC1` (stereo not drawn): the GI50 in the assay on A498 was > 100 µM (inactive); in the assay with A549, > 100 µM (inactive); with DLD-1 it was > 100 µM (inactive); with HCT-15, above 100 µM; with HOP-62 it was > 100 µM (inactive); in the assay on K562, > 100 µM (inactive). Further, the GI50 in the assay on LOX IMVI is > 100 µM (inactive); with MOLT-4, > 100 µM (inactive); in the assay with NCI-H226 it was 80 µM (inactive); with NCI-H23, > 100 µM (inactive); in the assay on OVCAR-3 it was > 100 µM (inactive); with OVCAR-8 it was > 100 µM (inactive). Besides, the GI50 in the assay with SF-268 and with SK-MEL-28 was > 100 µM (inactive) throughout.

As to `CCN(CC)CCC1CC/C(=C\c2ccc(OC)cc2)C1=O` (stereo not drawn), the GI50 is 74.8 µM (inactive) with A498; > 100 µM (inactive) with A549; > 100 µM (inactive) in the assay with DLD-1; > 100 µM (inactive) with HCC 2998; 38.7 µM in the assay on HCT-15; > 100 µM (inactive) with HOP-62. Moreover, the GI50 in the assay on K562 is 40 µM (inactive); in the assay with LOX IMVI, > 100 µM (inactive); in the assay with MOLT-4, 59.6 µM (inactive); in the assay on NCI-H226, > 100 µM (inactive); in the assay with OVCAR-3, > 100 µM (inactive); in the assay with OVCAR-8, > 100 µM (inactive). The GI50 in the assay on SF-268 was > 100 µM (inactive); with SK-MEL-28, 74.8 µM (inactive); in the assay with SN12C, > 100 µM (inactive).

In the case of `Cc1ccc(/C=C/C(=O)CCN(C)C)cc1`, the GI50 in the assay with A498 is > 100 µM (inactive); in the assay with A549, 20.7 µM (inactive); with DLD-1, 18.1 µM (inactive); with HCC 2998 it was 17.7 µM (inactive); in the assay with HCT-15 it was 15.5 µM; in the assay with HOP-62 it was 54.5 µM (inactive). In addition, the GI50 in the assay with K562 was 32 µM (inactive); with LOX IMVI, 16.3 µM (inactive); with MOLT-4, 23.2 µM (inactive); with NCI-H226, 19.2 µM (inactive); in the assay on NCI-H23, 27.9 µM (inactive); with OVCAR-3, 20.3 µM (inactive). The GI50 in the assay on OVCAR-8 is 15.9 µM (inactive); with SF-268, 24.9 µM (inactive); in the assay on SK-MEL-28 it was 19.4 µM (inactive); with SN12C, 16.9 µM (inactive).

For `COC(=O)C(C#N)=C1c2ccccc2Oc2ccccc21`, the GI50 in the assay with A498 was > 100 µM (inactive); in the assay with A549, > 100 µM (inactive); in the assay on DLD-1, > 100 µM (inactive); in the assay on HCC 2998, 98.9 µM (inactive); with HCT-15 it was above 100 µM; in the assay with HOP-62, > 100 µM (inactive). The GI50 in the assay on K562 is 31.5 µM (inactive); in the assay with LOX IMVI, > 100 µM (inactive); with MOLT-4, 35.4 µM (inactive); in the assay with NCI-H226 it was 65.5 µM (inactive); with NCI-H23, 56.9 µM (inactive); with OVCAR-3, 21.5 µM (inactive). Also, the GI50 was 43.4 µM (inactive) in the assay with OVCAR-8, 63 µM (inactive) with SF-268, 56.6 µM (inactive) in the assay with SK-MEL-28 and 38.9 µM (inactive) in the assay with SN12C.

As for `C[C@]1(CO)CCC[C@@]2(C)C1CC[C@H]1CC3C[C@]12CC[C@]3(C)O` (stereo partly drawn), the GI50 was 70.5 µM (inactive) in the assay on A549; 32.4 µM (inactive) with DLD-1; 58.9 µM (inactive) with HCC 2998; above 100 µM in the assay with HCT-15; 39.8 µM (inactive) in the assay with HOP-62; 11.5 µM (inactive) with K562. The GI50 with LOX IMVI is 90.6 µM (inactive); with MOLT-4, 2.77 µM (inactive); with NCI-H226, > 100 µM (inactive); in the assay on NCI-H23, 83.8 µM (inactive); in the assay with OVCAR-3 it was > 100 µM (inactive); with OVCAR-8, > 100 µM (inactive). The GI50 in the assay with SF-268, in the assay with SK-MEL-28 and with SN12C was > 100 µM (inactive) each time.

The record behind these values is ChEMBL document CHEMBL1201862, “PubChem BioAssay data set” (2004).
